The subject of assay [1] is Fibroblast growth factor (FGF). Put plainly: Interaction between FGF and radioactive IP3, co-elution on Sephadex G-25 / Heparin-Sepharose columns. The format is binding. Particulars: co-elution from Sephadex G-25, 50 mM Hepes pH 7.4. Here is the method:
The mixture was incubated for 1 hour at 4° C.
This type of column fractionate substances according to molecular weight. Substances with molecular weight exceeding 1500 will not penetrate the microspheres of the column and will accordingly elute quite soon after being loaded to the column, while smaller molecules will appear later as they partly or totally penetrate the microspheres depending on the molecular weight.
The incubate was loaded on the column and was uluted with 50 mM Hepes in fractions of 0.4 ml each.
To further determine the interaction the fractions with radioactivity and UV absorbance were loaded on a Heparin-Sepharose CL-6B column (Pharmacia Biotech, Sweden) (volume 25 ml, height 20 cm). […] Elution was performed with 50 mM Hepes, pH 7.4 and each fraction of 1 ml was collected for determination of radioactivity and UV absorbance. A peak with radioactivity but without UV absorption was loaded on a similar Sephadex G-25 column as described above and was eluted with the same type of buffer. Maximum radioactivity was obtained in fraction number 13 i.e. in this case the substance with radioactivity was more retained on the column.

The subject of assay [2] is fibroblast growth factor basic (bFGF). Kind of assay: bFGF/Matrigel-induced swelling (tumor-like matrix) in nude mice. The format is in vivo. The method, then:
In a procedure similar to example 3 fibroblast growth factor basic (bFGF) was used.
D-myo-inositol-1,2,6-trisphosphate (IP3) was administered to five mice while another group of five mice, recieving saline, were a control group.

The subject of assay [3] is Vascular permeability factor (VPF). Put plainly: VPF-induced vascular permeability, Evans Blue distribution in guinea pigs. The format is in vivo, guinea pig. To be noted: 5 mg/kg intravenous; after 60 minutes; control 62 mm^2. Here is the method:
Vascular permeability factor (VPF) promotes extravasation and oedema formation. Evans Blue was injected intravenously to 15 guinea pigs. This dye binds to plasma proteins and thereby provides a marker for vascular permeability to macromolecules.
50 mg of VPF was injected to each animal and the distribution of Evans Blue was measured.

The test system of a further assay is eye opening. Put plainly: Eye opening of new-born mice. It counts as in vivo. Particulars: 192 μg/g/day, daily injections day 0 to day 7; controls 13.6 and 13.5 days. From the text:
Growth factors are involved in processes occuring in new-born mammals. The biological process of eye opening is one example where specific growth factors affect the timing and completeness of the event.
Three groups of mice, 40 animals in each group were used. […] The third group served as a control without any treatment.

The nature of assay [4]: Binding constants to the polyamine spermine. It counts as physicochemical. Particulars: 1:1:5 complex; 0.1 M N-tetramethylbromide at 25° C. The method, then: The interaction between a polyamine, spermine and different triphosphorylated compounds were investigated in order to determin the binding constants. Spermine is a basic polyamine comprising domains of similar basicity to basic domains in growth factors. Spermine and the different phosphorylated compounds forms different complexes and the 1:1:5 complex was used as the complex for determination of binding constants.
The following binding constants, log Ks was determined in 0.1 M N-tetramethylbromide at 25° C.: […]

Assay [5] has as its system phosphatidyl inositol 3′ kinase (PI 3′-kinase). Put plainly: Interstitial fluid pressure (PIF) in rat hind paw, wortmannin-induced decrease. The format is in vivo, Wistar Möller rats. To be noted: 5 μg in 0.1 ml intravenous before wortmannin. An excerpt:
The enzyme phosphatidyl inositol 3′ kinase (PI 3′-kinase) is implicated in a number of growth factor induced responses such as mitogenesis, chemotaxis, membrane ruffling and the balance between osteoclasts and osteoblasts. Furthermore it is known that inactivation of PI 3′ kinase leads to increased oedema formation expressed as a decrease of interstitial fluid pressure (PIF) in animal models.
An inhibitor of PI 3′ kinase such as wortmannin renders a decrease of PIF as a consequence of inactivation of PI 3′ kinase.
The measurements were performed on female Wistar Möller rats (200-250 g), anesthetized with pentobarbital (50 mg/kg i.p.).
PIF was measured on the dorsal side of the hind paw with sharpened glass capillarier (tip diameter 2-7 μm) filled with 0.5 M NaCl coloured with Evans Blue and connected to a serve-controlled counter pressure system. The punctures were performed through intact skin using a stereomicroscope. The pipette-tip was located 0.3-0.5 mm below the skin. Pressure measurements were made 2.5-3.0 mm from the center of injection. The normal transcapillary pressure gradient is about 0.5 mm Hg.
Three sets of experiments were performed with six animals in each set.
In the first set of experiment the vehicle for wortmannin, DMSO diluted in saline, 5 μl, was injected subdermally using a chromatography syringe. […]

As to `O=P(O)(O)OC1C(O)C(O)C(O)C(OP(=O)(O)O)C1OP(=O)(O)O` [IP3, D-myo-inositol-1,2,6-trisphosphate], in assay [1], the “interaction between FGF and IP3” value is listed as “strong interaction”. In addition, the “volume of the formed matrix” value in assay [2] (Day 1) is recorded as 180 mm^3; in assay [2] (Day 3), 120 mm^3; in assay [2] (Day 5), 110 mm^3; in assay [2] (Day 7), 120 mm^3; in assay [2] (Day 8) it was 110 mm^3; in assay [2] (Day 9) it was 120 mm^3. The “histological examinations of the animals” value in assay [2] (group where IP3 was administered) is listed as “anti-angiogenic effects”. In addition, the “average area covered with Evans Blue” value in assay [3] is 15 mm^2. Moreover, the “eye opening, medium value” with eye opening is given as 15.3 days. The “log Ks” value in assay [4] was determined as 5.16. Besides, the “effect of pretreatment on wortmannin-induced decrease in PIF” value in assay [5] is recorded as “abolished decrease in PIF”.

Values taken from patent publication US6632797B2, “Method of treating angiogenesis” (priority 1996, dated 2003).
